Experiment: xn = mol fraction of the nth substance listed
Settings: 101 kPa

CCCC[n+]1ccn(C)c1.N[C@@H](CC(=O)O)C(=O)[O-] + CO
electrical conductivity (298.15 K, x1 = 0.0099): 0.82 S/m
electrical conductivity (298.15 K, x2 = 0.1001): 0.087 S/m
electrical conductivity (298.15 K, x2 = 0.1999): 0.093 S/m
electrical conductivity (298.15 K, x2 = 0.398): 0.125 S/m
electrical conductivity (298.15 K, x2 = 0.5949): 0.218 S/m
electrical conductivity (298.15 K, x2 = 0.6969): 0.314 S/m
electrical conductivity (298.15 K, x2 = 0.9214): 1.27 S/m
electrical conductivity (298.15 K, x2 = 0.9501): 1.36 S/m
electrical conductivity (298.15 K, x2 = 0.975): 1.23 S/m
electrical conductivity (303.15 K, x1 = 0.0099): 0.89 S/m
electrical conductivity (303.15 K, x2 = 0.1001): 0.101 S/m
electrical conductivity (303.15 K, x2 = 0.2999): 0.148 S/m
electrical conductivity (303.15 K, x2 = 0.398): 0.185 S/m
electrical conductivity (303.15 K, x2 = 0.5015): 0.231 S/m
electrical conductivity (303.15 K, x2 = 0.7957): 0.75 S/m
electrical conductivity (303.15 K, x2 = 0.8988): 1.22 S/m
electrical conductivity (303.15 K, x2 = 0.9214): 1.32 S/m
electrical conductivity (303.15 K, x2 = 0.9501): 1.39 S/m
electrical conductivity (303.15 K, x2 = 0.975): 1.25 S/m
electrical conductivity (308.15 K, x1 = 0.0099): 1 S/m
electrical conductivity (308.15 K, x2 = 0.1001): 0.124 S/m
electrical conductivity (308.15 K, x2 = 0.1999): 0.155 S/m
electrical conductivity (308.15 K, x2 = 0.2999): 0.202 S/m
electrical conductivity (308.15 K, x2 = 0.5015): 0.263 S/m
electrical conductivity (308.15 K, x2 = 0.5949): 0.336 S/m
electrical conductivity (308.15 K, x2 = 0.7957): 0.83 S/m
electrical conductivity (308.15 K, x2 = 0.8988): 1.28 S/m
electrical conductivity (308.15 K, x2 = 0.9501): 1.44 S/m
electrical conductivity (318.15 K, x1 = 0.0099): 1.03 S/m
electrical conductivity (318.15 K, x2 = 0.1001): 0.205 S/m
electrical conductivity (318.15 K, x2 = 0.2999): 0.233 S/m
electrical conductivity (318.15 K, x2 = 0.398): 0.26 S/m
electrical conductivity (318.15 K, x2 = 0.5949): 0.429 S/m
electrical conductivity (318.15 K, x2 = 0.6969): 0.64 S/m
electrical conductivity (318.15 K, x2 = 0.9214): 1.48 S/m
electrical conductivity (318.15 K, x2 = 0.9501): 1.57 S/m
electrical conductivity (318.15 K, x2 = 0.975): 1.39 S/m

From a compilation of properties of binary mixtures (doi:10.1021/je300932n)
